Test: wn = mass fraction of the nth substance listed
Conditions: 101.3 kPa, Liquid; for viscosity: Falling or rolling sphere viscometry; for mass density: Vibrating tube method

COCCO [2-methoxyethan-1-ol] + NCCO
Conditions	mass density [kg/m3]	viscosity [mPa·s]
293.15 K, w2 = 0	964.7	1.692
293.15 K, w2 = 0.1	971.8	2.321
293.15 K, w2 = 0.3	984.5	4.371
293.15 K, w2 = 0.5	995.6	7.952
293.15 K, w2 = 0.7	1005.1	13
293.15 K, w2 = 0.898	1013.4	20.5
298.15 K, w2 = 0	960.1	1.527
298.15 K, w2 = 0.1	967.3	2.065
298.15 K, w2 = 0.3	980.2	3.765
298.15 K, w2 = 0.5	991.4	6.634
298.15 K, w2 = 0.7	1001	10.51
298.15 K, w2 = 0.898	1009.4	16.17
303.15 K, w2 = 0	955.5	1.386
303.15 K, w2 = 0.1	962.8	1.849
303.15 K, w2 = 0.3	975.8	3.269
303.15 K, w2 = 0.5	987.1	5.598
303.15 K, w2 = 0.7	996.9	8.619
303.15 K, w2 = 0.898	1005.4	12.97
308.15 K, w2 = 0	950.9	1.262
308.15 K, w2 = 0.1	958.3	1.664
308.15 K, w2 = 0.3	971.5	2.861
308.15 K, w2 = 0.5	982.9	4.773
308.15 K, w2 = 0.7	992.8	7.158
308.15 K, w2 = 0.898	1001.4	10.55
313.15 K, w2 = 0	946.2	1.155
313.15 K, w2 = 0.1	953.7	1.504
313.15 K, w2 = 0.3	967.1	2.521
313.15 K, w2 = 0.5	978.6	4.105
313.15 K, w2 = 0.7	988.6	6.011
313.15 K, w2 = 0.898	997.3	8.699
318.15 K, w2 = 0	941.5	1.061
318.15 K, w2 = 0.1	949.1	1.367
318.15 K, w2 = 0.3	962.7	2.235
318.15 K, w2 = 0.5	974.3	3.561
318.15 K, w2 = 0.7	984.4	5.098
318.15 K, w2 = 0.898	993.3	7.265
323.15 K, w2 = 0	936.7	0.9781
323.15 K, w2 = 0.1	944.5	1.246
323.15 K, w2 = 0.3	958.2	1.992
323.15 K, w2 = 0.5	970	3.112
323.15 K, w2 = 0.7	980.3	4.367
323.15 K, w2 = 0.898	989.2	6.134
328.15 K, w2 = 0	932	0.905
328.15 K, w2 = 0.1	939.9	1.141
328.15 K, w2 = 0.3	953.8	1.786
328.15 K, w2 = 0.5	965.7	2.741
328.15 K, w2 = 0.7	976	3.775
328.15 K, w2 = 0.898	985.1	5.229
333.15 K, w2 = 0	927.2	0.8397
333.15 K, w2 = 0.1	935.2	1.049
333.15 K, w2 = 0.3	949.2	1.609
333.15 K, w2 = 0.5	961.3	2.427
333.15 K, w2 = 0.7	971.8	3.288
333.15 K, w2 = 0.898	981	4.503
338.15 K, w2 = 0	922.3	0.7818
338.15 K, w2 = 0.1	930.4	0.967
338.15 K, w2 = 0.3	944.7	1.456
338.15 K, w2 = 0.5	956.9	2.161
338.15 K, w2 = 0.7	967.5	2.884
338.15 K, w2 = 0.898	976.9	3.91
343.15 K, w2 = 0	917.4	0.7298
343.15 K, w2 = 0.1	925.7	0.8945
343.15 K, w2 = 0.3	940.1	1.324
343.15 K, w2 = 0.5	952.5	1.936
343.15 K, w2 = 0.7	963.3	2.546
343.15 K, w2 = 0.898	972.7	3.42
348.15 K, w2 = 0	912.4	0.6834
348.15 K, w2 = 0.1	920.8	0.8302
348.15 K, w2 = 0.3	935.5	1.207
348.15 K, w2 = 0.5	948	1.741
348.15 K, w2 = 0.7	958.9	2.261
348.15 K, w2 = 0.898	968.5	3.011
353.15 K, w2 = 0	907.4	0.6409
353.15 K, w2 = 0.1	916	0.7712
353.15 K, w2 = 0.3	930.8	1.105
353.15 K, w2 = 0.5	943.5	1.568
353.15 K, w2 = 0.7	954.6	2.019
353.15 K, w2 = 0.898	964.3	2.67
